According to patent publication US20140046021A1, “SELF-MAGNETIC METAL-SALEN COMPLEX COMPOUND” (IHI CORPORATION, priority 2011, published 2014):

Assay: magnetic field-magnetization curve measured with MPMS7 (Quantum Design)
Type: physicochemical
Settings: 37 degrees Celsius (310 K)
Text: Also, FIG. 8 is a graph showing the magnetic field-magnetization curves of the Mn salen complex, the Cr salen complex, and the Fe salen complex.

With [Co+2].[O-]c1ccccc1C=NCCN=Cc1ccccc1[O-] [Co salen complex] the “magnetism from magnetic field-magnetization curve” value was “paramagnetic”.
